The values below come from patent publication US20040102522A1, “Dosage form of sodium ibuprofen” (priority 2002, published 2004).

The nature of this data set: Water uptake (hygroscopicity) of sodium ibuprofen forms. The data set is classed as physicochemical.

As to `CC(C)Cc1ccc(C(C)C(=O)O)cc1.O.[Na]` (centres unmarked) [sodium ibuprofen hydrate], the “additional water uptake on open storage” value (open storage over 6 months at 40° C. and 75% RH, water content 13-14% by weight) was “did not take up additional water”. `CC(C)Cc1ccc(C(C)C(=O)O)cc1.[Na]` (centres unmarked) [water free sodium ibuprofen, sodium ibuprofen]: the water taken up result (relative humidity 25% RH, spontaneous) was “up to 13.6 % by weight”.
